Data from US10329289B2, “6,7-dihydro-5H-pyrrolo[3,4-B]pyridin-5-one allosteric modulators of the M4 muscarinic acetylcholine receptor” (Merck Sharp & Dohme Corp., priority 2015, dated 2019).

What follows are molecules tested against T1, human M4 muscarinic acetylcholine receptor (Homo sapiens, UniProt P08173) (assay: human FLIPR-based M4 PAM assay (Ca2+ mobilization, CHO-K1 cells with human M4 receptor and Gαqi5)). Details: acetylcholine at 20% of maximum response, read-out: M4 PAM IP.
T1 construct: expressed in transfected cells; host or cells: CHO-K1
T1 sequence (P08173 1-479): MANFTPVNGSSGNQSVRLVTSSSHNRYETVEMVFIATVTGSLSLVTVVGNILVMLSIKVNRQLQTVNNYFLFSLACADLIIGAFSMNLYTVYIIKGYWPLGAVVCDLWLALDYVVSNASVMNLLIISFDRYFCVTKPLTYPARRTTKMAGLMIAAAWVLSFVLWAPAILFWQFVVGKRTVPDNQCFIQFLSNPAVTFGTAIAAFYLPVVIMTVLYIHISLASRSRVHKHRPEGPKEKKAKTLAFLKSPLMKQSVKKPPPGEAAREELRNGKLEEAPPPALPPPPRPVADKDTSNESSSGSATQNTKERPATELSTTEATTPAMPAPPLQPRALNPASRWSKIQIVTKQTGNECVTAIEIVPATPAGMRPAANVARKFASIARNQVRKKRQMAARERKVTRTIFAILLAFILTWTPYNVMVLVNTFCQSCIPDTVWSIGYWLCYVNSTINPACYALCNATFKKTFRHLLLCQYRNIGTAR
Type: cell-based
Outline: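 CHO-K1 cells stably expressing human M4 and chimeric Gαqi5 were dye-loaded ~1 h at 37 °C and read for Ca2+ fluorescence. Compound followed by acetylcholine at an EC20 (sometimes an EC70 third addition); inflection point from a 4-parameter logistic fit.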

EC50 [nM]	Compound
87	Cc1cc2c(nc1N1CCC(Oc3cnn(C)c3)CC1)[C@@H](CO)N(C)C2=O [Example 357, (S)-7-(hydroxymethyl)-3,6-dimethyl-2-(4-((1-methyl-1H-pyrazol-4-yl)oxy)piperidin-1-yl)-6,7-dihydro-5H-pyrrolo[3,4-b]pyridin-5-one]
8070	Cc1cc2c(nc1N1CCC(Oc3cnn(C)c3)CC1)[C@H](CO)N(C)C2=O [Example 358, (R)-7-(hydroxymethyl)-3,6-dimethyl-2-(4-((1-methyl-1H-pyrazol-4-yl)oxy)piperidin-1-yl)-6,7-dihydro-5H-pyrrolo[3,4-b]pyridin-5-one]
37	Cc1cc2c(nc1N1CCC(Oc3ccc4c(cnn4C)c3)CC1)[C@@H](CO)N(C)C2=O [Example 359, (S)-7-(hydroxymethyl)-3,6-dimethyl-2-(4-((1-methyl-1H-indazol-5-yl)oxy)piperidin-1-yl)-6,7-dihydro-5H-pyrrolo[3,4-b]pyridin-5-one]
1680	Cc1cc2c(nc1N1CCC(Oc3ccc4c(cnn4C)c3)CC1)[C@H](CO)N(C)C2=O [Example 360, (R)-7-(hydroxymethyl)-3,6-dimethyl-2-(4-((1-methyl-1H-indazol-5-yl)oxy)piperidin-1-yl)-6,7-dihydro-5H-pyrrolo[3,4-b]pyridin-5-one]
85	CCc1cc2c(nc1N1CCC(Oc3ccc4c(c3)COCC4)CC1)[C@@H](CO)N(C)C2=O [Example 361, (S)-3-ethyl-7-(hydroxymethyl)-2-(4-(isochroman-7-yloxy)piperidin-1-yl)-6-methyl-6,7-dihydro-5H-pyrrolo[3,4-b]pyridin-5-one]
1290	CCc1cc2c(nc1N1CCC(Oc3ccc4c(c3)COCC4)CC1)[C@H](CO)N(C)C2=O [Example 362, (R)-3-ethyl-7-(hydroxymethyl)-2-(4-(isochroman-7-yloxy)piperidin-1-yl)-6-methyl-6,7-dihydro-5H-pyrrolo[3,4-b]pyridin-5-one]
100	CCc1cc2c(nc1N1CCC(Oc3ccc4c(cnn4C)c3)CC1)[C@@H](CO)N(C)C2=O [Example 363, (S)-3-ethyl-7-(hydroxymethyl)-6-methyl-2-(4-((1-methyl-1H-indazol-5-yl)oxy)piperidin-1-yl)-6,7-dihydro-5H-pyrrolo[3,4-b]pyridin-5-one]
3770	CCc1cc2c(nc1N1CCC(Oc3ccc4c(cnn4C)c3)CC1)[C@H](CO)N(C)C2=O [Example 364, (R)-3-ethyl-7-(hydroxymethyl)-6-methyl-2-(4-((1-methyl-1H-indazol-5-yl)oxy)piperidin-1-yl)-6,7-dihydro-5H-pyrrolo[3,4-b]pyridin-5-one]
26	CCc1cc2c(nc1N1CCC(Oc3ccc4c(c3)OCC4)CC1)[C@@H](CO)N(C)C2=O [Example 365, (S)-2-(4-((2,3-dihydrobenzofuran-6-yl)oxy)piperidin-1-yl)-3-ethyl-7-(hydroxymethyl)-6-methyl-6,7-dihydro-5H-pyrrolo[3,4-b]pyridin-5-one]
1240	CCc1cc2c(nc1N1CCC(Oc3ccc4c(c3)OCC4)CC1)[C@H](CO)N(C)C2=O [Example 366, (R)-2-(4-((2,3-dihydrobenzofuran-6-yl)oxy)piperidin-1-yl)-3-ethyl-7-(hydroxymethyl)-6-methyl-6,7-dihydro-5H-pyrrolo[3,4-b]pyridin-5-one]

The remaining lines, values behind:

Compound	EC50 [nM]
Cc1cncc(OC2CCN(c3nc4c(cc3C)C(=O)N(C)[C@@H]4CO)CC2)c1 [Example 343, (S)-7-(hydroxymethyl)-3,6-dimethyl-2-(4-((5-methylpyridin-3-yl)oxy)piperidin-1-yl)-6,7-dihydro-5H-pyrrolo[3,4-b]pyridin-5-one]	55
COc1ccc(OC2CCN(c3nc4c(c(C)c3C)C(=O)N(C)[C@@H]4CO)CC2)cn1 [Example 343A, (S)-7-(hydroxymethyl)-2-(4-((6-methoxypyridin-3-yl)oxy)piperidin-1-yl)-3,4,6-trimethyl-6,7-dihydro-5H-pyrrolo[3,4-b]pyridin-5-one]	27
Cc1cncc(OC2CCN(c3nc4c(cc3C)C(=O)N(C)[C@H]4CO)CC2)c1 [Example 344, (R)-7-(hydroxymethyl)-3,6-dimethyl-2-(4-((5-methylpyridin-3-yl)oxy)piperidin-1-yl)-6,7-dihydro-5H-pyrrolo[3,4-b]pyridin-5-one]	1220
COc1ccc(OC2CCN(c3nc4c(c(C)c3C)C(=O)N(C)[C@H]4CO)CC2)cn1 [Example 344A, (R)-7-(hydroxymethyl)-2-(4-((6-methoxypyridin-3-yl)oxy)piperidin-1-yl)-3,4,6-trimethyl-6,7-dihydro-5H-pyrrolo[3,4-b]pyridin-5-one]	760
Cc1cc2c(nc1N1CCC(Oc3cccc(C#N)c3)CC1)[C@@H](CO)N(C)C2=O [Example 345, (S)-3-((1-(7-(hydroxymethyl)-3,6-dimethyl-5-oxo-6,7-dihydro-5H-pyrrolo[3,4-b]pyridin-2-yl)piperidin-4-yl)oxy)benzonitrile]	23
Cc1cc2c(nc1N1CCC(Oc3cccc(C#N)c3)CC1)[C@H](CO)N(C)C2=O [Example 346, (R)-3-((1-(7-(hydroxymethyl)-3,6-dimethyl-5-oxo-6,7-dihydro-5H-pyrrolo[3,4-b]pyridin-2-yl)piperidin-4-yl)oxy)benzonitrile]	3080
Cc1cc2c(nc1N1CCC(Oc3ccc(F)c(F)c3)CC1)[C@@H](CO)N(C)C2=O [Example 347, (S)-2-(4-(3,4-difluorophenoxy)piperidin-1-yl)-7-(hydroxymethyl)-3,6-dimethyl-6,7-dihydro-5H-pyrrolo[3,4-b]pyridin-5-one]	28
Cc1cc2c(nc1N1CCC(Oc3ccc(F)c(F)c3)CC1)[C@H](CO)N(C)C2=O [Example 348, (R)-2-(4-(3,4-difluorophenoxy)piperidin-1-yl)-7-(hydroxymethyl)-3,6-dimethyl-6,7-dihydro-5H-pyrrolo[3,4-b]pyridin-5-one]	8170
Cc1cc2c(nc1N1CCC(Oc3ccc4c(c3)COCC4)CC1)[C@@H](CO)N(C)C2=O [Example 349, (S)-7-(hydroxymethyl)-2-(4-(isochroman-7-yloxy)piperidin-1-yl)-3,6-dimethyl-6,7-dihydro-5H-pyrrolo[3,4-b]pyridin-5-one]	22
Cc1cc2c(nc1N1CCC(Oc3ccc4c(c3)CCOC4)CC1)[C@@H](CO)N(C)C2=O [Example 349A, (S)-7-(hydroxymethyl)-2-(4-(isochroman-6-yloxy)piperidin-1-yl)-3,6-dimethyl-6,7-dihydro-5H-pyrrolo[3,4-b]pyridin-5-one]	22
Cc1cc2c(nc1N1CCC(Oc3ccc4c(c3)COCC4)CC1)[C@H](CO)N(C)C2=O [Example 350, (R)-7-(hydroxymethyl)-2-(4-(isochroman-7-yloxy)piperidin-1-yl)-3,6-dimethyl-6,7-dihydro-5H-pyrrolo[3,4-b]pyridin-5-one]	980
CCc1cc2c(nc1N1CCC(Oc3ccc4c(c3)COC4)CC1)[C@@H](CO)N(C)C2=O [Example 351, (S)-2-(4-((1,3-dihydro-2-benzofuran-5-yl)oxy)piperidin-1-yl)-3-ethyl-7-(hydroxymethyl)-6-methyl-6,7-dihydro-5H-pyrrolo[3,4-b]pyridin-5-one]	40
CCN1C(=O)c2c(nc(N3CCC(Oc4ccc5c(c4)COC5)CC3)c(C)c2C)[C@H]1CO [Example 351A, (S)-2-(4-((1,3-dihydroisobenzofuran-5-yl)oxy)piperidin-1-yl)-6-ethyl-7-(hydroxymethyl)-3,4-dimethyl-6,7-dihydro-5H-pyrrolo[3,4-b]pyridin-5-one]	19
CCc1cc2c(nc1N1CCC(Oc3ccc4c(c3)COC4)CC1)[C@H](CO)N(C)C2=O [Example 352, can-2-(4-((1,3-dihydro-2-benzofuran-5-yl)oxy)piperidin-1-yl)-3-ethyl-7-(hydroxymethyl)-6-methyl-6,7-dihydro-5H-pyrrolo[3,4-b]pyridin-5-one]	2100
Cc1c(N2CCC(Oc3ccc(F)cc3)CC2)nc2c(c1C)C(=O)N(C)[C@@H]2CO [Example 353, (S)-2-(4-(4-fluorophenoxy)piperidin-1-yl)-7-(hydroxymethyl)-3,4,6-trimethyl-6,7-dihydro-5H-pyrrolo[3,4-b]pyridin-5-one]	30
Cc1c(N2CCC(Oc3ccc(F)cc3)CC2)nc2c(c1C)C(=O)N(C)[C@H]2CO [Example 354, (R)-2-(4-(4-fluorophenoxy)piperidin-1-yl)-7-(hydroxymethyl)-3,4,6-trimethyl-6,7-dihydro-5H-pyrrolo[3,4-b]pyridin-5-one]	1470
Cc1cc2c(nc1N1CCC(Oc3ccc4c(c3)OCC4)CC1)[C@@H](CO)N(C)C2=O [Example 355, (S)-2-(4-((2,3-dihydrobenzofuran-6-yl)oxy)piperidin-1-yl)-7-(hydroxymethyl)-3,6-dimethyl-6,7-dihydro-5H-pyrrolo[3,4-b]pyridin-5-one]	16
Cc1cc2c(nc1N1CCC(Oc3ccc4c(c3)OCC4)CC1)[C@H](CO)N(C)C2=O [Example 356, (R)-2-(4-((2,3-dihydrobenzofuran-6-yl)oxy)piperidin-1-yl)-7-(hydroxymethyl)-3,6-dimethyl-6,7-dihydro-5H-pyrrolo[3,4-b]pyridin-5-one]	788
